Results: paper PMC3618987, “From BACE1 Inhibitor to Multifunctionality of Tryptoline and Tryptamine Triazole Derivatives for Alzheimer’s Disease” (Molecules, 2012)
“Also recorded” adds a separate entry of the source.

Tests used:
[1] = Free radical scavenging assay (DPPH)
Protocol: The test samples were prepared in 50% DMSO at 500 µM. Seventy microliters of DPPH solution (500 µM in methanol) was added to 96 well plate. The assay mixture was adjusted to 80 µL volume by methanol. After adjusting the volume, 20 µL of test compounds was added to each well. The reaction plate was incubated at room temperature in dark for 30 min. The absorbance was measured at 517 nm by using infinite 200 pro^TM, Tecan. Ascorbic acid was used as a positive control. Percent inhibition was calculated and compounds showing activity were evaluated for the IC50 values.

β-Secretase (BACE1) = target: T1, β-Secretase (BACE1) (Homo sapiens, UniProt P56817); test: β-Secretase inhibition assay (fluorogenic substrate IV); format: biochemical; settings: for inhibition at 25 µM: read-out: BACE1 % Inhibition (at 25 µM) (±SEM)
T1 construct: purchased Sino Biological
T1 sequence (P56817 46-501): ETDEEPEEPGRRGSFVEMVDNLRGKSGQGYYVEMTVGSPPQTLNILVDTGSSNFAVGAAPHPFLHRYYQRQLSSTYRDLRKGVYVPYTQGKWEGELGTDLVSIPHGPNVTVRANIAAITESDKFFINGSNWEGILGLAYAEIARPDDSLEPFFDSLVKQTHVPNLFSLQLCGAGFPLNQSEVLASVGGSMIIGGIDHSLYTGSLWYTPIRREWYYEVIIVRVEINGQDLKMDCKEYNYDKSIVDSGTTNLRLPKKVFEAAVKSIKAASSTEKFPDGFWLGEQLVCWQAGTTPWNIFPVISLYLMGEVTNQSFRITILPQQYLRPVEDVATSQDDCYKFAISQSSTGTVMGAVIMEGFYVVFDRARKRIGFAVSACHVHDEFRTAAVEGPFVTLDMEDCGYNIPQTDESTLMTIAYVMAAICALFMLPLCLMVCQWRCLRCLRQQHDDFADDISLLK
Protocol: β-Secretase enzyme was reconstituted with 50 mM Tris (pH 7.5), 10% glycerol to yield concentration of 0.5 unit/µL. The enzyme stock solution was diluted with 100 mM sodium acetate buffer (pH 4.5) to 0.01 unit/µL. Thirty microliters of enzyme solution were added to each well that contained 20 µL of 5% DMSO of test compound. Then, fifty microliters of 50 µM β-secretase substrate IV from Calbiochem were added to the reaction plate. […] The assays were run in triplicate.

[2] = Fe (II) chelation capacity assay (ferrozine)
Protocol: An aqueous solution of 0.2 mM ferrous sulphate was prepared. Fifty microliters of this solution was added to 96 well plate, then 40 µL of 500 µM of test compounds in 50% DMSO were added to each well followed by DI water to adjust the volume to 150 µL. The mixtures were incubated at room temperature for 10 min. After incubation, 50 µL of 1 mM ferrozine (Sigma) was added to the reaction mixture. The absorbance was measured at 562 nm by using infinite 200 pro^TM, Tecan. EDTA was used as a positive control. Chelation capacity of each compounds were calculated. Compounds having chelating capacity over than 50% were evaluated for stoichiometric ratio of compound: metal.

amyloid-β (1-42) peptide [3] = target: T2, amyloid-β (1-42) peptide (Homo sapiens, UniProt P05067); test: Amyloid β aggregation assay (ThT fluorescence); format: biochemical; settings: Aβ(1-42), 48 h, read-out: Anti-Aβ aggregation % Inhibition (at 100 µM) (±SEM)
T2 construct: Stock solution of amyloid-β (1-42) peptide (Anaspec; 1384 µM in 1% NH4OH); purchased Anaspec
T2 sequence (P05067 672-713 limits assumed): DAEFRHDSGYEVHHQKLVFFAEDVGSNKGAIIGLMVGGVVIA
Protocol: Nine microliters amyloid-β solution was added to a greiner transparent 96 well plate. One microliter of each test compounds (1,000 µM in DMSO) were added to each well and mixed gently by tapping. The final concentrations of each compound were 100 µM in 10% DMSO. The reaction plate was incubated in dark at 37 °C for 48 h. After incubation, 200 µL of 5 µM ThT (Sigma) in 50 mM Tris buffer (pH 7.4) was added to each well. The fluorescence was measured at Ex = 446 nm and Em = 490 nm by using SpectraMax Gemini EM^TM [30]. The assays were run in triplicate.

SH-SY5Y cells = test: Protection against Aβ1-42 induced neuronal cell death, MTT viability assay; format: cell-based; settings: compound 1 μM
Protocol: The SH-SY5Y cells were cultured in a medium containing minimum essential medium (MEM): F-12 (1:1), 10% fetal bovine serum, MEM non-essential amino acids (0.5×), 0.5 mM sodium pyruvate and 100 units/ml of penicillin and 100 μg/mL of streptomycin. The cells were maintained under a humidified incubator with 5% CO2 in air at 37 °C.
SH-SY5Y cells were seeded in 96-well plates (2 × 10^4 cells per well) for 24 h. […] The aggregated β-amyloid was prepared by incubating in a medium without serum, penicillin and streptomycin at 37 °C for 72 h. The cells treated with aggregated β-amyloid were incubated for 24 h, 15 µL of MTT reagent (5 mg/mL MTT in serum free medium containing […]) was added to each well and incubated at 37 °C for 3 h. The medium was removed from each well. One hundred microlitres of 0.04 N HCl in isopropanol was added to each well to dissolve blue formazan crystals, which is the product of MTT catalyzed by mitochondrial dehydrogenase. The absorbance was measured at 570/630 nm using a Synergy^TM HT multi-detection microplate reader (Bio-Tek Instruments, Winooski, VT, USA).

amyloid-β (1-42) peptide [4] = target: T2, amyloid-β (1-42) peptide; test: Amyloid β aggregation assay (ThT fluorescence); format: biochemical; settings: Aβ(1-42), read-out: Anti-Aβ aggregation IC50

Row | Structure (SMILES) | inhibition at 25 µM (β-Secretase (BACE1)) | melting point | IC50 [1] | IC50 (amyloid-β (1-42) peptide [4]) | DPPH % Inhibition (at 100 µM) (±SEM) [1] | Fe chelation % Capacity (at 100 µM) (±SEM) [2] | inhibition at 100 µM (amyloid-β (1-42) peptide [3]) | Protective effect against Aβ1-42 induced neuronal cell death (MTT viability) (SH-SY5Y cells) | IC50 (β-Secretase (BACE1))
1 | N[C@@H](Cc1c[nH]c2ccccc12)Cn1cc(CNC(=O)c2cc(O)cc(O)c2)nn1 [Compound 12f, (S)-N-((1-(2-Amino-3-(1H-indol-3-yl)propyl)-1H-1,2,3-triazol-4-yl)methyl)-3,5-dihydroxybenzamide] | 16.6% | 68 to 70 °C |  |  | 1.32 (±0.78) % | 13.06 (±0.16) % | 3.8% |  | 
2 | N[C@@H](Cc1c[nH]c2ccccc12)Cn1cc(CNC(=O)/C=C/c2ccc(O)c(O)c2)nn1 [Compound 12h, (S,E)-N-((1-(2-Amino-3-(1H-indol-3-yl)propyl)-1H-1,2,3-triazol-4-yl)methyl)-3-(3,4-dihydroxy-phenyl)acrylamide] | 40% |  | 92.7 µM | 56.4 µM | 50.58 (±0.17) % |  |  | significantly greater than those of the potent single target compound, BACE1 inhibitor IV; also recorded: decrease cell death to a greater extent than BACE1 inhibitor IV; also recorded: better than that of single targeted ligands | 
3 | C[C@@H](NC(=O)c1cc(C(=O)N[C@@H](Cc2ccccc2)[C@H](O)CNC2CC2)cc(N(C)S(C)(=O)=O)c1)c1ccccc1 [Inh IV, reference compound] |  |  |  |  |  |  |  | improved cell viability | 
4 | N[C@@H](Cc1c[nH]c2ccccc12)Cn1cc(-c2ccc(Cl)c(Cl)c2)nn1 [Compound 12c, (S)-1-(4-(3,4-Dichlorophenyl)-1H-1,2,3-triazol-1-yl)-3-(1H-indol-3-yl)propan-2-amine] | 61.5% |  |  | 83.2 µM |  |  | > 50% | significantly greater than those of the potent single target compound, BACE1 inhibitor IV; also recorded: decrease cell death to a greater extent than BACE1 inhibitor IV; also recorded: better than that of single targeted ligands | 20.7 µM

The next lines start with results.

Row | inhibition at 25 µM (β-Secretase (BACE1)) | melting point | IC50 [1] | IC50 (amyloid-β (1-42) peptide [4]) | Structure (SMILES) | DPPH % Inhibition (at 100 µM) (±SEM) [1] | Fe chelation % Capacity (at 100 µM) (±SEM) [2] | inhibition at 100 µM (amyloid-β (1-42) peptide [3]) | Protective effect against Aβ1-42 induced neuronal cell death (MTT viability) (SH-SY5Y cells) | IC50 (β-Secretase (BACE1))
5 | 16.2% | 118 to 119 °C | 130 µM | 110 µM | COc1cc(/C=C/C(=O)NCc2cn(C[C@@H](N)Cc3c[nH]c4ccccc34)nn2)ccc1O [Compound 12g, (S,E)-N-((1-(2-Amino-3-(1H-indol-3-yl)propyl)-1H-1,2,3-triazol-4-yl)methyl)-3-(4-hydroxy-3-methoxyphenyl)acrylamide] | 40.79 (±0.31) % |  | 46.1% |  | 
6 | 21.7% |  | 42.9 µM | 29.9 µM | O=C(/C=C/c1ccc(O)c(O)c1)NCc1cn(C[C@@H]2Cc3c([nH]c4ccccc34)CN2)nn1 [Compound 6h, (S)-3-((4-(N-(((E)-(3,4-Dihydroxyphenyl)propenoyl)azyl)methyl)-1H-1,2,3-triazol-1-yl)methyl)-2,3,4,9-tetrahydro-1H-pyrido[3,4-b]indole] | 92.29 (±0.02) % | 42.74 (±0.30) % |  | significantly greater than those of the potent single target compound, BACE1 inhibitor IV; also recorded: decrease cell death to a greater extent than BACE1 inhibitor IV; also recorded: better than that of single targeted ligands | 
7 | 21.3% | 180 to 182 °C |  |  | O=C(NCc1cn(C[C@@H]2Cc3c([nH]c4ccccc34)CN2)nn1)c1cc(O)cc(O)c1 [Compound 6f, (S)-3-((4-(((N-(3,5-Dihydroxy)benzoyl)azyl)methyl)-1H-1,2,3-triazol-1-yl)methyl)-2,3,4,9-tetrahydro-1H-pyrido[3,4-b]indole] |  | 5.80 (±0.04) % |  |  | 
8 | 21.1% |  | 106 µM | 82.9 µM | COc1cc(/C=C/C(=O)NCc2cn(C[C@@H]3Cc4c([nH]c5ccccc45)CN3)nn2)ccc1O [Compound 6g, (S)-3-((4-(N-(((E)-(3-Methoxy-4-hydroxyphenyl)propenoyl)azyl)methyl)-1H-1,2,3-triazol-1-yl)-methyl)-2,3,4,9-tetrahydro-1H-pyrido[3,4-b]indole] | 47.03 (±0.12) % | 8.88 (±0.25) % | > 50% |  | 
